Test results reported in ChEMBL document CHEMBL2417394, “Exquisite selectivity for human toll-like receptor 8 in substituted furo[2,3-c]quinolines” (J Med Chem, 2013).
Active and inactive are the calls of the source.

Tests used:
[1] = molecular target: Nucleotide-binding oligomerization domain-containing protein 2 (Homo sapiens) (UniProt Q9HC29); experiment: Antagonist activity at NOD2 (unknown origin)
[2] = molecular target: T1, Toll-like receptor 8 (Homo sapiens) (UniProt Q9NR97); experiment: Antagonist activity at human TLR8 expressed in HEK293 cells co-transfected with MD2 and sAP assessed as inhibition of NF-kappaB activity by reporter gene assay; type: cell-based
T1 sequence (whole entry): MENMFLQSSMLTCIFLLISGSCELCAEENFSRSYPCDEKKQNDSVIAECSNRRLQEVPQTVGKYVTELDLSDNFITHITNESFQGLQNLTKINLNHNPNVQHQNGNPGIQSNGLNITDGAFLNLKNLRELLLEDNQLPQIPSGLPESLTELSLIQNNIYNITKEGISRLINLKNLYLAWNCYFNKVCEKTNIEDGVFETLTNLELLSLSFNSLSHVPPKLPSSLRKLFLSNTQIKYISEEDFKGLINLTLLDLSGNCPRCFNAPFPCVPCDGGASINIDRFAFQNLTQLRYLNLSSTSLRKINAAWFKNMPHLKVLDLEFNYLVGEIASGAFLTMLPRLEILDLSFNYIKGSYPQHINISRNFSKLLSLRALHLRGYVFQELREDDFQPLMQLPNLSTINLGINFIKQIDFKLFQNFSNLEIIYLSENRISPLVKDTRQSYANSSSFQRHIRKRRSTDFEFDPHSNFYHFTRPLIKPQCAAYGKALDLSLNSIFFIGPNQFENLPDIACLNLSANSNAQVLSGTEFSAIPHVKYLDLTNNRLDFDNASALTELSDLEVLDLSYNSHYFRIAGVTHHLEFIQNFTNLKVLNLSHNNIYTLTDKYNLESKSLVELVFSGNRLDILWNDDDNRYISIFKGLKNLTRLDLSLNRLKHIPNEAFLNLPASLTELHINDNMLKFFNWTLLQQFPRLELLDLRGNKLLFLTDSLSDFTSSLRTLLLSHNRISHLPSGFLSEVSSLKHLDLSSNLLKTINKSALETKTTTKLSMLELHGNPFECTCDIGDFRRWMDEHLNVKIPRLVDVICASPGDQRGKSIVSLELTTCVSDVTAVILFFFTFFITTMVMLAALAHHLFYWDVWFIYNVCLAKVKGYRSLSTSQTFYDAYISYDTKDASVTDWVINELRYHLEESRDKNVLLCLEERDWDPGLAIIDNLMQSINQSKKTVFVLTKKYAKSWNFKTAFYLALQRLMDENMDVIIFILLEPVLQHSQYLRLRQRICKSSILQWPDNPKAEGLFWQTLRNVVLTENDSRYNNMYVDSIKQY

[3] = molecular target: T2, Toll-like receptor 7 (Homo sapiens) (UniProt Q9NYK1); experiment: Antagonist activity at human TLR7 expressed in HEK293 cells co-transfected with MD2 and sAP assessed as inhibition of NF-kappaB activity by reporter gene assay; type: cell-based
T2 sequence (whole entry): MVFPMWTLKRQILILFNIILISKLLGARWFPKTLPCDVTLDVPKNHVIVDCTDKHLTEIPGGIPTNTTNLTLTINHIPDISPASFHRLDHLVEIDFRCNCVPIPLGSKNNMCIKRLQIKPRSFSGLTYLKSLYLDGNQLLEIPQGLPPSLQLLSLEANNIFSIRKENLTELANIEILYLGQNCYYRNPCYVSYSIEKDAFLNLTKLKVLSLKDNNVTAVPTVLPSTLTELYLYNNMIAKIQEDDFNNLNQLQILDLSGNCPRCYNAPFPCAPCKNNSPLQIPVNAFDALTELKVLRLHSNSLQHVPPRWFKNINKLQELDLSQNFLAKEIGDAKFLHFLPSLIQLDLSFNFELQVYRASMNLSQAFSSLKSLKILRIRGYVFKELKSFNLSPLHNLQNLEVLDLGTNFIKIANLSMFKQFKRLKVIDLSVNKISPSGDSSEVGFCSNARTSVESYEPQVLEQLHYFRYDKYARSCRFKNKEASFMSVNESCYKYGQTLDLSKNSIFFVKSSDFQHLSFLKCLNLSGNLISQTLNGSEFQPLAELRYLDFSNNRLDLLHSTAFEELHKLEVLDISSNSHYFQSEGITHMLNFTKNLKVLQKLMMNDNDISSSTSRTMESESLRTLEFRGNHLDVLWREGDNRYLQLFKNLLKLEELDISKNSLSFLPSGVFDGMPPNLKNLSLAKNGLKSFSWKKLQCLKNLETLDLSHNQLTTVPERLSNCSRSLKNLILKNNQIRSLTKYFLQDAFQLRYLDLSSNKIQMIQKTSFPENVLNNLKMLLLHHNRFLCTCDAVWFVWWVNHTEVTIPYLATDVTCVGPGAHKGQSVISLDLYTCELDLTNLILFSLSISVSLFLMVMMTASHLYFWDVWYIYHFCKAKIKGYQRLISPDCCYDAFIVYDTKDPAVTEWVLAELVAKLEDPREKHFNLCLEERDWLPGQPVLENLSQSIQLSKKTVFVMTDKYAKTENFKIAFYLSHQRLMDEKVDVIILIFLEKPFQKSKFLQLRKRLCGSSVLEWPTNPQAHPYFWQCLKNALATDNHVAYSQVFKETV

[4] = molecular target: Toll-like receptor 5 (Homo sapiens) (UniProt O60602); experiment: Antagonist activity at human TLR5 expressed in HEK293 cells co-transfected with MD2 and sAP assessed as inhibition of NF-kappaB activity by reporter gene assay; type: cell-based
[5] = molecular target: Toll-like receptor 4 (Homo sapiens) (UniProt O00206); experiment: Antagonist activity at human TLR4 expressed in HEK293 cells co-transfected with MD2 and sAP assessed as inhibition of NF-kappaB activity by reporter gene assay; type: cell-based
[6] = molecular target: Toll-like receptor 3 (Homo sapiens) (UniProt O15455); experiment: Antagonist activity at human TLR3 expressed in HEK293 cells co-transfected with MD2 and sAP assessed as inhibition of NF-kappaB activity by reporter gene assay; type: cell-based

Measured: inhibition

Chain of Toll-like receptor 5 (Homo sapiens) (O60602 whole entry): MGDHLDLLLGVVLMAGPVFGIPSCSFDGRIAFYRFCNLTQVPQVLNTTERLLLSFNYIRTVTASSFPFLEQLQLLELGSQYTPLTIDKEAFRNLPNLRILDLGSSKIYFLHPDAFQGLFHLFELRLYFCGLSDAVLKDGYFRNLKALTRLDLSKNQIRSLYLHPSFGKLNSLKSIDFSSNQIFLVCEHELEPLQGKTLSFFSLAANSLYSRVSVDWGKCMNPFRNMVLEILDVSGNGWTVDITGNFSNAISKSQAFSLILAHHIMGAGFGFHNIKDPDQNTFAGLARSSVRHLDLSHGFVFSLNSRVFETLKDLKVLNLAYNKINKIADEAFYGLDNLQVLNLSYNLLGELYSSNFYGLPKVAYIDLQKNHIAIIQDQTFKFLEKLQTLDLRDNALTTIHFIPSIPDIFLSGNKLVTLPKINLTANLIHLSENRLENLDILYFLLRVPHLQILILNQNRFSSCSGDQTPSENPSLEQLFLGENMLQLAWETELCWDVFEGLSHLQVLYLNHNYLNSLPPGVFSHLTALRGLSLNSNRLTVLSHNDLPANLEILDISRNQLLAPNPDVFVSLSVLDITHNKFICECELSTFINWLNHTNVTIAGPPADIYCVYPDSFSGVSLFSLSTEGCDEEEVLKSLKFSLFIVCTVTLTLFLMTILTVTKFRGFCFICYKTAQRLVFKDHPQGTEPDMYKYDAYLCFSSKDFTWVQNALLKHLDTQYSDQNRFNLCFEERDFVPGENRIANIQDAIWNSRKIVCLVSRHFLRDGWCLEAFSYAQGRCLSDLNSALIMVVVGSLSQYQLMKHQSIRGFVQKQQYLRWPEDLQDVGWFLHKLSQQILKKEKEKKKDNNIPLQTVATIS
Chain of Toll-like receptor 4 (Homo sapiens) (O00206 whole entry): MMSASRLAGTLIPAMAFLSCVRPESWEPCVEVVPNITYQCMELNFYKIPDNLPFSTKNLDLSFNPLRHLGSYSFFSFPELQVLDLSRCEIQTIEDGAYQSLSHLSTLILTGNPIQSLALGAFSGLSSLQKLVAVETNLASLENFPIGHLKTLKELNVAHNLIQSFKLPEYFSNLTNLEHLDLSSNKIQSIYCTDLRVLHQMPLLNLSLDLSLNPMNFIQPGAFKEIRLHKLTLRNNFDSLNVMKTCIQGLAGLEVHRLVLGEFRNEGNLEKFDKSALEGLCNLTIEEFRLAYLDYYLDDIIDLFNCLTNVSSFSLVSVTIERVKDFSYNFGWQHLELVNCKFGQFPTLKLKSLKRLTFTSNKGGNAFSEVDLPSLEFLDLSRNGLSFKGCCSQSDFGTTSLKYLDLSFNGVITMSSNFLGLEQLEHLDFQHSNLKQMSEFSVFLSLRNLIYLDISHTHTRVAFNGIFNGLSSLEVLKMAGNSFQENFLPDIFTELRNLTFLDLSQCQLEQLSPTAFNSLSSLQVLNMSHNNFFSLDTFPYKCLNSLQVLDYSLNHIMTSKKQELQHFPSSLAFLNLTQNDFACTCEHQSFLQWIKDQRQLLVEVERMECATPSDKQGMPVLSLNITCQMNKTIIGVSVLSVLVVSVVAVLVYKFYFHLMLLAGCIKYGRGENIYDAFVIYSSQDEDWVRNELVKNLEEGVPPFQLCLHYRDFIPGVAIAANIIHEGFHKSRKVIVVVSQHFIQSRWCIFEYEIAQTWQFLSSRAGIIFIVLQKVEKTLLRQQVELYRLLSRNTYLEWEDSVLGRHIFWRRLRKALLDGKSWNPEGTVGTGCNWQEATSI
Chain of Nucleotide-binding oligomerization domain-containing protein 2 (Homo sapiens) (Q9HC29 whole entry, the tested form may be a part): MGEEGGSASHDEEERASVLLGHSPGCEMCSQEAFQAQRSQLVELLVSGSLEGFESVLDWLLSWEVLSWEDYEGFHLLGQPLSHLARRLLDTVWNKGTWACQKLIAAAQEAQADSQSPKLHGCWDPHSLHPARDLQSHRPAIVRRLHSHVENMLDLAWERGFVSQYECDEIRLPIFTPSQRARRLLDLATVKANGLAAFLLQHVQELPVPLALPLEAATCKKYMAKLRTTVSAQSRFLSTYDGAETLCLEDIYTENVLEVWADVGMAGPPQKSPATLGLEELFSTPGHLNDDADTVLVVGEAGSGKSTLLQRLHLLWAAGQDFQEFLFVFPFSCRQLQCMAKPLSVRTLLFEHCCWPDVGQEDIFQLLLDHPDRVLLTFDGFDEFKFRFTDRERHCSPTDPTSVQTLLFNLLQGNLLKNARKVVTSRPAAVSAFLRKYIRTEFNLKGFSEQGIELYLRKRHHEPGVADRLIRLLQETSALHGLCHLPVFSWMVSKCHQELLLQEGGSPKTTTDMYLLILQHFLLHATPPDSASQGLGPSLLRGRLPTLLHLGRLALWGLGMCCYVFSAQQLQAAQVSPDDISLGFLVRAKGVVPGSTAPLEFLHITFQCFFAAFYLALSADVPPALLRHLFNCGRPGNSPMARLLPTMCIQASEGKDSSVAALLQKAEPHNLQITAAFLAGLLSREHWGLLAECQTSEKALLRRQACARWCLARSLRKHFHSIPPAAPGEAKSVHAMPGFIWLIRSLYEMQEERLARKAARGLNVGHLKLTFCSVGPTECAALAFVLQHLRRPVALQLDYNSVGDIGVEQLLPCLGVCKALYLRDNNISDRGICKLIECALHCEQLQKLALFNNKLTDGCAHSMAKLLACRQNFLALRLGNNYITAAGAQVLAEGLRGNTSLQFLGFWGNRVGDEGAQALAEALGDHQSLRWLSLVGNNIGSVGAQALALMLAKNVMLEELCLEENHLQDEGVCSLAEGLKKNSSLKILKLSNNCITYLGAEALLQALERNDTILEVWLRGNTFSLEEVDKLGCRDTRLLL
Chain of Toll-like receptor 3 (Homo sapiens) (O15455 whole entry): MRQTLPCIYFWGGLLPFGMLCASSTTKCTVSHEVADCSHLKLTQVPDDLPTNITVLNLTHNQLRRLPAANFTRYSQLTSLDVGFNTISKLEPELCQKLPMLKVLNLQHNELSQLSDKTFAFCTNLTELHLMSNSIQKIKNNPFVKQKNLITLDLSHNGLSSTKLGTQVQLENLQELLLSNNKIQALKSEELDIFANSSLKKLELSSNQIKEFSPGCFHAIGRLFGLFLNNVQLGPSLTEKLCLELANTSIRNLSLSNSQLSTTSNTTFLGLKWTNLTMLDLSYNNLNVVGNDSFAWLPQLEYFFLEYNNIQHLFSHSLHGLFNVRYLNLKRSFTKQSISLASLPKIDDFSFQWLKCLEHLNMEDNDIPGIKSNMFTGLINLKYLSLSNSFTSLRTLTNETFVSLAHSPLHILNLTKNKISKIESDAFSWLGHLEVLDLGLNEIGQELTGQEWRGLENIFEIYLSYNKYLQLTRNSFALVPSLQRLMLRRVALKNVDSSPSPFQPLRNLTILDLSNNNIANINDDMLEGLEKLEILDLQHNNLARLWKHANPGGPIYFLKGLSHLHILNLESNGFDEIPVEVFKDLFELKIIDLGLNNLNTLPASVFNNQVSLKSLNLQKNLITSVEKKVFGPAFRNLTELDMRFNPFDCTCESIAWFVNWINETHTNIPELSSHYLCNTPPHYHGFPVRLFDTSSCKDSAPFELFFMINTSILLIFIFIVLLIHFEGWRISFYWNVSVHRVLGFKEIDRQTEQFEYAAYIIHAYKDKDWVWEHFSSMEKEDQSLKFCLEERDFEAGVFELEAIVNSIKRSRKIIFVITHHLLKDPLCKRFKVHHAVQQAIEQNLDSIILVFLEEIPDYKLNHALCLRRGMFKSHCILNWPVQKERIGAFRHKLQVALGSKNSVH

CCCc1cc2c(N)nc3ccccc3c2o1
inactive: [1] | [2] | [3] | [4] | [5] | [6]

CCCCc1cc2c(N)nc3ccccc3c2o1
inactive: [1] | [2] | [3] | [4] | [5] | [6]

Nc1nc2ccccc2c2oc(-c3ccccc3)cc12
inactive: [1] | [2] | [3] | [4] | [5] | [6]

CCCCc1cc2c(nc(N)c3ccccc32)o1
inactive: [1] | [2] | [3] | [4] | [5] | [6]
